The structures appear in SMILES notation. pIC50: −log10 of the molar value. Where only a bound is given, the exact number is not on record here.

One test addresses T1, Prolyl endopeptidase FAP (Homo sapiens, UniProt Q12884).
T1 sequence (Q12884 whole entry): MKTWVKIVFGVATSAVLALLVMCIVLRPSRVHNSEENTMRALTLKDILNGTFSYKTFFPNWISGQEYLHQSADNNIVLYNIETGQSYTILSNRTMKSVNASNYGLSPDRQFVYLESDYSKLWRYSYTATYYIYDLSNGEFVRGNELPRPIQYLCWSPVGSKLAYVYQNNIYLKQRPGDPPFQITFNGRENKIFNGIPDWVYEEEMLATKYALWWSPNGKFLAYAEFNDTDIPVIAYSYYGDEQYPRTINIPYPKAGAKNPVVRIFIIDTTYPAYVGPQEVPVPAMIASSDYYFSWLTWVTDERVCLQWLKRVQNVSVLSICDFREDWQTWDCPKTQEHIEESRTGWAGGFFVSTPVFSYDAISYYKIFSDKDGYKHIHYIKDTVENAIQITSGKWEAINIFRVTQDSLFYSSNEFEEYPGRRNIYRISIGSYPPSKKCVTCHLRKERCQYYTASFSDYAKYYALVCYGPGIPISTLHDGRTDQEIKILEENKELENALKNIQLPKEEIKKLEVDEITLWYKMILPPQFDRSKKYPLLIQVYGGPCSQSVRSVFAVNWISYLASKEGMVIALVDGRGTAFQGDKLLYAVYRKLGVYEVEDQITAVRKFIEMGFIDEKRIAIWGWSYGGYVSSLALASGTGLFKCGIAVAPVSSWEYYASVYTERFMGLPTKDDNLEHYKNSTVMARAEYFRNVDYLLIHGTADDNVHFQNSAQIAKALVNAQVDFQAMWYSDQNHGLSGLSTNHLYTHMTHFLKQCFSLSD
The experiment in a line: Inhibition of FAP (unknown origin) using Nle-Pro-AMC as substrate preincubated for 20 mins followed by substrate addition measured after 40 mins by fluorescence assay.
Turning to `CC#CCn1c(N2CCC[C@@H](N)C2)nc2c1C(=O)N(Cc1cccc(C#N)c1)C1=NCCN12`, the negative-log IC50 (pIC50) (in general, the IC50 on a negative log10 scale, so that one unit is a factor of ten) was 4.11.

For `CC#CCn1c(N2CCC[C@@H](N)C2)nc2c1C(=O)N(Cc1ccc(OC)cc1)C1=NCCCN12`, the pIC50 was less than 4.30.

`Cc1nc(CN2C(=O)c3c(nc(N4CCC[C@@H](N)C4)n3Cc3ccccc3C#N)N3CCN=C23)nc2ccccc12`: the pIC50 is 4.82.

The compound `Cc1nc(CN2C(=O)c3c(nc(N4CCC[C@@H](N)C4)n3CC(=O)C3CC3)N3CCN=C23)nc2ccccc12` had a pIC50 of 6.97.

Turning to `CC(C)=CCn1c(N2CCC[C@@H](N)C2)nc2c1C(=O)N(Cc1nc(C)c3ccccc3n1)C1=NCCN12`, the pIC50 is 6.12.

Take `CC#CCn1c(N2CCC[C@@H](N)C2)nc2c1C(=O)N(Cc1ccc(C#N)cc1)C1=NCCN12`: the pIC50 is 4.05.

For the compound `Cc1nc(CN2C(=O)c3c(nc(N4CCC[C@@H](N)C4)n3CC3CC3(F)F)N3CCN=C23)nc2ccccc12` (stereo partly drawn), the pIC50 is 4.83.

`CC#CCn1c(N2CCC[C@@H](N)C2)nc2c1C(=O)N(Cc1nc(C)c3ccccc3n1)C1=NCCCN12` showed a pIC50 of 6.57. Against the preceding compound, the pIC50 is 1.74 log units higher.

In the case of `Cc1nc(CN2C(=O)c3c(nc(N4CCC[C@@H](N)C4)n3Cc3ccccc3)N3CCN=C23)nc2ccccc12`, the pIC50 is 5.33.

`Cc1nc(CN2C(=O)c3c(nc(N4CCC[C@@H](N)C4)n3Cc3cccc(F)c3)N3CCN=C23)nc2ccccc12`: the negative-log IC50 (pIC50) is 5.34. This pIC50 and that of the compound before are within 0.2 log units of each other.

`Cc1nc(CN2C(=O)c3c(nc(N4CCC[C@@H](N)C4)n3CC3CCC3)N3CCN=C23)nc2ccccc12` had a pIC50 of 5.52.

In turn, `CC#CCn1c(N2CCC[C@@H](N)C2)nc2c1C(=O)N(Cc1cccc3ccccc13)C1=NCCCN12` gave a pIC50 of 4.65. This pIC50 is 0.87 log units lower than that of the compound before.

Consider `Cc1nc(CN2C(=O)c3c(nc(N4CCC[C@@H](N)C4)n3CC3CC3)N3CCN=C23)nc2ccccc12`, for which the negative logarithm of the IC50 (pIC50) is 5.51.

With `Cc1nc(CN2C(=O)c3c(nc(N4CCC[C@@H](N)C4)n3Cc3cc(F)ccc3F)N3CCN=C23)nc2ccccc12`, the pIC50 was 5.00.

`CC#CCn1c(N2CCC[C@@H](N)C2)nc2c1C(=O)N(Cc1ccccc1C#N)C1=NCCN12` gave a pIC50 of less than 4.00.

Consider `CC#CCn1c(N2CCC[C@@H](N)C2)nc2c1C(=O)N(Cc1nc(C)c3ccccc3n1)C1=NCCN12`, for which the pIC50 is 6.44.

For another test, the target named is Dipeptidyl peptidase 4 (Homo sapiens, UniProt P27487). The experiment in a line: Inhibition of DPP4 (unknown origin) using Gly-Pro-AMC as substrate preincubated for 30 mins followed by substrate addition measured after 50 mins by fluorescence assay.
Sequence of Dipeptidyl peptidase 4 (P27487 whole entry): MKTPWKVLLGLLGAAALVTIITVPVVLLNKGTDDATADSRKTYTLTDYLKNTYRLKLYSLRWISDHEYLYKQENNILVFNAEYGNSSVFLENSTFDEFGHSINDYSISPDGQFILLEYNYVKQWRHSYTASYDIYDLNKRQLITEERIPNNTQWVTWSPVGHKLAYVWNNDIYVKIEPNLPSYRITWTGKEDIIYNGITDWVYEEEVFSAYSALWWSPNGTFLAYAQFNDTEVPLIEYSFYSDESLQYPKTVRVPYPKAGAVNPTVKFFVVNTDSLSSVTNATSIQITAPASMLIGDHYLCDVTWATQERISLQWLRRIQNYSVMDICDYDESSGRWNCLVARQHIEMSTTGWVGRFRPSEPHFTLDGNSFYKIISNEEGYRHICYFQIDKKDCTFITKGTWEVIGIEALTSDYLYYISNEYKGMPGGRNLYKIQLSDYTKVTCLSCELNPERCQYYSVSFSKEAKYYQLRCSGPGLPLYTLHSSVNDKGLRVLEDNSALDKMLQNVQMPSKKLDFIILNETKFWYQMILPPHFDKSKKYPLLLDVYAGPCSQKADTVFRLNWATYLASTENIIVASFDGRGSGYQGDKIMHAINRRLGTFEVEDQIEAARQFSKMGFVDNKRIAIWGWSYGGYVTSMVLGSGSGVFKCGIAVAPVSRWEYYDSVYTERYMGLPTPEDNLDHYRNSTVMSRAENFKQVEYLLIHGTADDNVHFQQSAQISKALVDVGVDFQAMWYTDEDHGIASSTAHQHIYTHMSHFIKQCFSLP
As to `CC#CCn1c(N2CCC[C@@H](N)C2)nc2c1C(=O)N(CCCc1ccccc1)C1=NCCCN12`, the negative logarithm of the IC50 (pIC50) is less than 5.00.

The compound `CC#CCn1c(N2CCC[C@@H](N)C2)nc2c1c(=O)nc1n2CCCN1CCCc1ccccc1` showed a negative-log IC50 (pIC50) of less than 5.00.

The record behind these values is ChEMBL document CHEMBL4428131, “Scaffold-hopping from xanthines to tricyclic guanines: A case study of dipeptidyl peptidase 4 (DPP4) inhibitors” (Bioorg Med Chem, 2016).
